From patent publication US8309546B2, “Morpholinopurine derivatives” (Daiichi Sankyo Company, Limited, priority 2008, dated 2012)

System: human endometrial cancer cell strain AN3CA tumor
Assay: Anti-tumor effect assay using mouse subcutaneous transplantation model
Format: in vivo, female nude mouse
Details: AN3-CA, oral, tumor weight vs negative control, read-out: Anti-tumor effect (tumor growth inhibition rate); for inhibition in vivo at 2.5 mg/kg/day / inhibition in vivo at 5 mg/kg/day / inhibition in vivo at 10 mg/kg/day: 8 or 5 consecutive days depending on compound
Experimental: A tumor section was prepared from a human endometrial cancer cell strain AN3CA tumor mass formed in a female nude mouse as a subcutaneously transplanted tumor and then a xenograft model was prepared by transplanting the tumor section into female nude mouse. Tumor-bearing mice having an estimated tumor volume (long diameter×short diameter×short diameter/2) of 80 to 200 mm^3 were divided, so that there should be no significant difference in the mean estimated tumor volume and body weight as compared with the negative control group to perform a test. The test compound was orally administered at a predetermined dose for 8 consecutive days. On the following day of the final administration day, tumor-bearing mice were anesthetized and exsanguinated to death and a tumor mass was isolated to measure tumor weight (the compounds of Examples 1, 3, 6, 8, 11, 12, and 14). Furthermore, as a similar test, the test compound was orally administered for 5 consecutive days, animals were sacrificed on the final administration day, and tumor weight was measured (the compounds of Examples 60, 63, 75, 77, 79, 89, 92, 107, 108, 109, 110, and 127).
In all the tests, anti-tumor effect was calculated by the following formula. {1−(tumor weight in compound treatment group/tumor weight in negative control group)}×100

Row | Compound | inhibition in vivo at 5 mg/kg/day [%] | inhibition in vivo at 10 mg/kg/day [%] | other results
1 | CC(C)Cn1c(N2CCN(C=O)[C@H](C)C2)nc2c(N3CCOCC3)nc(-c3cnc(N)nc3)nc21 [Example 100, (2R)-4-[2-(2-Aminopyrimidin-5-yl)-9-isobutyl-6-morpholin-4-yl-9H-purin-8-yl]-2-methylpiperazine-1-carboaldehyde] | 62 | – | inhibition in vivo at 2.5 mg/kg/day: 53%
2 | C[C@H](O)C(=O)N1CCN(c2nc3c(N4CCOCC4)nc(-c4cnc(N)nc4)nc3n2CC2CC2)C[C@@H]1C [Example 92, (2S)-1-{(2S)-4-[2-(2-Aminopyrimidin-5-yl)-9-(cyclopropylmethyl)-6-morpholin-4-yl-9H-purin-8-yl]-2-methylpiperazin-1-yl}-1-oxopropan-2-ol] | 52 | 61 | –
3 | CC(C)Cn1c(N2CCN(S(C)(=O)=O)CC2)nc2c(N3CCOCC3)nc(-c3cnc(N)nc3)nc21 [Example 1, 5-{9-Isobutyl-8-[4-(methylsulfonyl)piperazin-1-yl]-6-morpholin-4-yl-9H-purin-2-yl}pyrimidin-2-amine] | 79 | 92 | –
4 | C[C@H](O)C(=O)N1CCN(c2nc3c(N4CCOCC4)nc(-c4cnc(N)nc4)nc3n2CC(F)(F)F)C[C@H]1C [Example 110, (2S)-1-{(2R)-4-[2-(2-Aminopyrimidin-5-yl)-6-morpholin-4-yl-9-(2,2,2-trifluoroethyl)-9H-purin-8-yl]-2-methylpiperazin-1-yl}-1-oxopropan-2-ol] | – | – | inhibition in vivo at 1.875 mg/kg/day (120 h, 1.875 mg/kg/day, 5 consecutive days): 43%; inhibition in vivo at 7.5 mg/kg/day (120 h, 7.5 mg/kg/day, 5 consecutive days): 73%
5 | C[C@H]1COCCN1c1nc(-c2cnc(N)nc2)nc2c1nc(N1CCN(S(C)(=O)=O)CC1)n2CC(F)(F)F [Example 127, 5-{6-[(3S)-3-Methylmorpholin-4-yl]-8-[4-(methylsulfonyl)piperazin-1-yl]-9-(2,2,2-trifluoroethyl)-9H-purin-2-yl}pyrimidin-2-amine] | 69 | 79 | –
6 | CS(=O)(=O)N1CCN(c2nc3c(N4CCOCC4)nc(-c4cnc(N)nc4)nc3n2CC(F)(F)F)CC1 [Example 8, 5-{8-[4-(Methylsulfonyl)piperazin-1-yl]-6-morpholin-4-yl-9-(2,2,2-trifluoroethyl)-9H-purin-2-yl}pyrimidin-2-amine] | 93 | – | inhibition in vivo at 2.5 mg/kg/day: 72%
7 | CC[C@H]1CN(c2nc3c(N4CCOCC4)nc(-c4cnc(N)nc4)nc3n2CC(F)(F)F)CCN1C(=O)[C@H](C)O [Example 77, (2S)-1-{(2S)-4-[2-(2-Aminopyrimidin-5-yl)-6-morpholin-4-yl-9-(2,2,2-trifluoroethyl)-9H-purin-8-yl]-2-ethylpiperazin-1-yl}-1-oxopropan-2-ol] | – | – | inhibition in vivo at 3.75 mg/kg/day (120 h, 3.75 mg/kg/day, 5 consecutive days): 47%; inhibition in vivo at 15 mg/kg/day (120 h, 15 mg/kg/day, 5 consecutive days): 84%
8 | Cc1nc(N)ncc1-c1nc(N2CCOCC2)c2nc(N3CCN(S(C)(=O)=O)CC3)n(CC3CC3)c2n1 [Example 6, 5-{9-(Cyclopropylmethyl)-8-[4-(methylsulfonyl)piperazin-1-yl]-6-morpholin-4-yl-9H-purin-2-yl}-4-methylpyrimidin-2-amine] | 66 | 69 | –
